The values that follow come from US20250353891A1 (MEDIMMUNE LIMITED, priority 2022, published 2025).

Assay [1] concerns the target human glucagon receptor (hGCGR) (Homo sapiens, UniProt P47871). Kind of assay: cAMP production (HTRF) in CHO cells expressing hGCGR. Format: cell-based. Set-up: expressed in transfected cells. The conditions noted are these: Table 7, peptides modified at position 20; cAMP in CHO hGCGR cells; geometric mean; read-out: hGluc-R EC50. Put shortly:
(§1)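 Cells were resuspended in assay buffer at batch-optimized density, typically 1×10^5 cells/mL for hGLP-1R and 2×10^5 cells/mL for hGCGR. After 30 min incubation at room temperature with compound, cAMP was measured by two-step HTRF. EC50 values came from 4-parameter logistic fits of % Delta F.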
(In general: cAMP levels reflect the balance of adenylyl cyclase and phosphodiesterase activity.)

Assay [2] has as its target human GLP-1 receptor (hGLP-1R) (Homo sapiens, UniProt P43220). Kind of assay: cAMP production (HTRF) in CHO cells expressing hGLP-1R. Format: cell-based. The arrangement: expressed in transfected cells. The following applies: for EC50: Table 7, peptides modified at position 20, cAMP in CHO hGLP-1R cells, geometric mean, read-out: hGLP-1R EC50; for % Relative Potency Ratio: Table 7, % GLP-1R activity relative to GLP-1 / % GlucR activity relative to glucagon. Put shortly: as §1

Starred links: 1 amine or outer side, 2 acyl side, 3 side chain; linkers in the order of their positions; H or OH if unused. Non-standard residues stand in square brackets, D forms with d. Residues, ends and D or L forms follow the SMILES beside them. Groups on a side chain read outwards from the residue. *: point of attachment. C18 diacid = O=C(O)CCCCCCCCCCCCCCCCC(=O)*; γGlu = O=C(O)[C@H](CCC(=O)[*:2])N[*:1]; αMeF = C[C@](N)(Cc1ccccc1)C(=O)O; Aib = CC(C)(N)C(=O)O

human glucagon receptor (hGCGR), sequence (P47871 26-477): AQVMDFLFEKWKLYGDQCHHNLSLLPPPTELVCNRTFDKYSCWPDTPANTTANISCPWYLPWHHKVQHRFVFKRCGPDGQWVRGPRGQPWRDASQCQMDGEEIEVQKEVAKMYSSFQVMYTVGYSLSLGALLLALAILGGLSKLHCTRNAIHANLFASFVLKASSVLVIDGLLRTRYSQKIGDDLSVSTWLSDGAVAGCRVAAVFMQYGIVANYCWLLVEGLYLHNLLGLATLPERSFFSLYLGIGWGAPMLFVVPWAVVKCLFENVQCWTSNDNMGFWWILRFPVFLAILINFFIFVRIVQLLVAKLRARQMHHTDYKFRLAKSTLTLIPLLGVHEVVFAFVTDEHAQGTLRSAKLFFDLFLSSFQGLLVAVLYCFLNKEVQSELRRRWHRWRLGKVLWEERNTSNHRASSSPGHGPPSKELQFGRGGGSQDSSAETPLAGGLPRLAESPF
human GLP-1 receptor (hGLP-1R), sequence (P43220 24-463): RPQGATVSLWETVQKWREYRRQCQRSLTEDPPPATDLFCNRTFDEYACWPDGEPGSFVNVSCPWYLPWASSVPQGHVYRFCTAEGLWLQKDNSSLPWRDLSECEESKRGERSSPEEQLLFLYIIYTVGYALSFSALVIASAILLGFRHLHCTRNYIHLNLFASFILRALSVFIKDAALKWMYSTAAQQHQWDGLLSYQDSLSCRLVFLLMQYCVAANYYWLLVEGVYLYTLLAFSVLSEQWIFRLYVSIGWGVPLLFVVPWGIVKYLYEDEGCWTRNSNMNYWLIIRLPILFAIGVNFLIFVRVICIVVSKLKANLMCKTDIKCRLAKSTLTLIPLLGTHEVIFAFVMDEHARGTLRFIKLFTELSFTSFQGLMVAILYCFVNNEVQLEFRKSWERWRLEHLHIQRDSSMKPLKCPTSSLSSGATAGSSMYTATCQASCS

`CC(C)C[C@H](NC(=O)[C@H](Cc1c[nH]c2ccccc12)NC(=O)[C@H](CCC(N)=O)NC(=O)[C@@H](NC(=O)[C@H](Cc1ccccc1)NC(=O)[C@H](CC(=O)O)NC(=O)[C@H](CCCCNC(=O)CC[C@H](NC(=O)CCCCCCCCCCCCCCCCC(=O)O)C(=O)O)NC(=O)[C@H](C)NC(=O)[C@H](CCCNC(=N)N)NC(=O)[C@H](CCCNC(=N)N)NC(=O)[C@H](CO)NC(=O)[C@H](CC(=O)O)NC(=O)[C@H](CC(C)C)NC(=O)[C@](C)(Cc1ccccc1)NC(=O)[C@H](CCCCN)NC(=O)[C@H](CO)NC(=O)[C@H](Cc1ccc(O)cc1)NC(=O)[C@H](CC(=O)O)NC(=O)[C@H](CO)NC(=O)[C@@H](NC(=O)[C@H](Cc1ccccc1)NC(=O)[C@@H](NC(=O)CNC(=O)[C@H](CCC(N)=O)NC(=O)C(C)(C)NC(=O)[C@@H](N)Cc1c[nH]cn1)[C@@H](C)O)[C@@H](C)O)C(C)C)C(=O)N[C@@H](CC(C)C)C(=O)N[C@@H](CCC(=O)O)C(=O)NC(C)(C)C(=O)NCC(=O)O` [Peptide 335]: the 50% effective concentration (EC50) in assay [1] came out at 312 pM. Further, in assay [2], the EC50 is 1060 pM and the “% Relative Potency Ratio” value worked out at 0.6.

On to `CC[C@H](C)[C@H](NC(=O)[C@H](CC(C)C)NC(=O)[C@H](Cc1c[nH]c2ccccc12)NC(=O)[C@H](CCC(N)=O)NC(=O)[C@@H](NC(=O)[C@H](Cc1ccccc1)NC(=O)[C@H](CC(=O)O)NC(=O)[C@H](CCCCNC(=O)CC[C@H](NC(=O)CCCCCCCCCCCCCCCCC(=O)O)C(=O)O)NC(=O)[C@H](C)NC(=O)[C@H](CCCNC(=N)N)NC(=O)[C@H](CCCNC(=N)N)NC(=O)[C@H](CO)NC(=O)[C@H](CC(=O)O)NC(=O)[C@H](CC(C)C)NC(=O)[C@](C)(Cc1ccccc1)NC(=O)[C@H](CCCCN)NC(=O)[C@H](CO)NC(=O)[C@H](Cc1ccc(O)cc1)NC(=O)[C@H](CC(=O)O)NC(=O)[C@H](CO)NC(=O)[C@@H](NC(=O)[C@H](Cc1ccccc1)NC(=O)[C@@H](NC(=O)CNC(=O)[C@H](CCC(N)=O)NC(=O)C(C)(C)NC(=O)[C@@H](N)Cc1c[nH]cn1)[C@@H](C)O)[C@@H](C)O)C(C)C)C(=O)N[C@@H](CO)C(=O)N[C@@H](CCC(=O)O)C(=O)O` [Peptide 336] (H-H[Aib]QGTFTSDYSK[αMeF]LDSRRAK([γGlu-C18 diacid])DFVQWLISE-OH; N-terminus assumed), for which, in assay [1], the concentration giving a half-maximal response (EC50) worked out at 305 pM. In assay [2], the concentration giving a half-maximal response (EC50) was 632 pM and the “% Relative Potency Ratio” value is 1.0.

Regarding `CC(C)C[C@H](NC(=O)[C@H](Cc1c[nH]c2ccccc12)NC(=O)[C@H](CCC(N)=O)NC(=O)[C@@H](NC(=O)[C@H](Cc1ccccc1)NC(=O)[C@H](CC(=O)O)NC(=O)[C@H](CCCCNC(=O)CC[C@H](NC(=O)CCCCCCCCCCCCCCCCC(=O)O)C(=O)O)NC(=O)[C@H](C)NC(=O)[C@H](CCCNC(=N)N)NC(=O)[C@H](CCCNC(=N)N)NC(=O)[C@H](CO)NC(=O)[C@H](CC(=O)O)NC(=O)[C@H](CC(C)C)NC(=O)[C@](C)(Cc1ccccc1)NC(=O)[C@H](CCCCN)NC(=O)[C@H](CO)NC(=O)[C@H](Cc1ccc(O)cc1)NC(=O)[C@H](CC(=O)O)NC(=O)[C@H](CO)NC(=O)[C@@H](NC(=O)[C@H](Cc1ccccc1)NC(=O)[C@@H](NC(=O)CNC(=O)[C@H](CCC(N)=O)NC(=O)C(C)(C)NC(=O)[C@@H](N)Cc1c[nH]cn1)[C@@H](C)O)[C@@H](C)O)C(C)C)C(=O)N[C@@H](CC(C)C)C(=O)NC(C)(C)C(=O)N[C@H](C(=O)O)[C@@H](C)O` [Peptide 337], in assay [1], the EC50 came out at 89.6 pM. Moreover, in assay [2], the concentration for a half-maximal effect (EC50) was determined as 400 pM and the “% Relative Potency Ratio” value is recorded as 0.4.

On to `CC(C)C[C@H](NC(=O)[C@H](Cc1c[nH]c2ccccc12)NC(=O)[C@H](CCC(N)=O)NC(=O)[C@@H](NC(=O)[C@H](Cc1ccccc1)NC(=O)[C@H](CC(=O)O)NC(=O)[C@H](CCCCNC(=O)CC[C@H](NC(=O)CCCCCCCCCCCCCCCCC(=O)O)C(=O)O)NC(=O)[C@H](C)NC(=O)[C@H](CCCNC(=N)N)NC(=O)[C@H](CCCNC(=N)N)NC(=O)C(C)(C)NC(=O)[C@H](CC(=O)O)NC(=O)[C@H](CC(C)C)NC(=O)[C@](C)(Cc1ccccc1)NC(=O)[C@H](CCCCN)NC(=O)[C@H](CO)NC(=O)[C@H](Cc1ccc(O)cc1)NC(=O)[C@H](CC(=O)O)NC(=O)[C@H](CO)NC(=O)[C@@H](NC(=O)[C@H](Cc1ccccc1)NC(=O)[C@@H](NC(=O)CNC(=O)[C@H](CCC(N)=O)NC(=O)C(C)(C)NC(=O)[C@@H](N)Cc1c[nH]cn1)[C@@H](C)O)[C@@H](C)O)C(C)C)C(=O)N[C@@H](CC(C)C)C(=O)NC(C)(C)C(=O)N[C@H](C(=O)O)[C@@H](C)O` [Peptide 338], for which the EC50 was found to be 25.7 pM in assay [1] and 308 pM in assay [2]. Also, the “% Relative Potency Ratio” value in assay [2] came out at 0.2.

For `CC(C)C[C@H](NC(=O)[C@H](Cc1c[nH]c2ccccc12)NC(=O)[C@H](CCC(N)=O)NC(=O)[C@@H](NC(=O)[C@H](Cc1ccccc1)NC(=O)[C@H](CC(=O)O)NC(=O)[C@H](CCCCNC(=O)CC[C@H](NC(=O)CCCCCCCCCCCCCCCCC(=O)O)C(=O)O)NC(=O)[C@H](C)NC(=O)[C@H](CCCNC(=N)N)NC(=O)[C@H](CCCNC(=N)N)NC(=O)[C@H](CO)NC(=O)[C@H](CC(=O)O)NC(=O)[C@H](CC(C)C)NC(=O)[C@](C)(Cc1ccccc1)NC(=O)[C@H](CCCCN)NC(=O)[C@H](CO)NC(=O)[C@H](Cc1ccc(O)cc1)NC(=O)[C@H](CC(=O)O)NC(=O)[C@H](CO)NC(=O)[C@@H](NC(=O)[C@H](Cc1ccccc1)NC(=O)[C@@H](NC(=O)CNC(=O)[C@H](CCC(N)=O)NC(=O)C(C)(C)NC(=O)[C@@H](N)Cc1c[nH]cn1)[C@@H](C)O)[C@@H](C)O)C(C)C)C(=O)N[C@@H](CC(C)C)C(=O)NC(C)(C)C(=O)N[C@@H](CCC(=O)O)C(=O)O` [Peptide 339] (H-H[Aib]QGTFTSDYSK[αMeF]LDSRRAK([γGlu-C18 diacid])DFVQWLL[Aib]E-OH; N-terminus assumed), the EC50 in assay [1] was determined as 70.3 pM. In addition, in assay [2], the EC50 is 312 pM and the “% Relative Potency Ratio” value was determined as 0.4.

Consider `CC(C)C[C@H](NC(=O)[C@H](Cc1c[nH]c2ccccc12)NC(=O)[C@H](CCC(N)=O)NC(=O)[C@@H](NC(=O)[C@H](Cc1ccccc1)NC(=O)[C@H](CC(=O)O)NC(=O)[C@H](CCCCNC(=O)CC[C@H](NC(=O)CCCCCCCCCCCCCCCCC(=O)O)C(=O)O)NC(=O)[C@H](C)NC(=O)[C@H](CCCNC(=N)N)NC(=O)[C@H](CCCNC(=N)N)NC(=O)[C@H](CO)NC(=O)[C@H](CC(=O)O)NC(=O)[C@H](CC(C)C)NC(=O)[C@](C)(Cc1ccccc1)NC(=O)[C@H](CCCCN)NC(=O)[C@H](CO)NC(=O)[C@H](Cc1ccc(O)cc1)NC(=O)[C@H](CC(=O)O)NC(=O)[C@H](CO)NC(=O)[C@@H](NC(=O)[C@H](Cc1ccccc1)NC(=O)[C@@H](NC(=O)CNC(=O)[C@H](CCC(N)=O)NC(=O)C(C)(C)NC(=O)[C@@H](N)Cc1c[nH]cn1)[C@@H](C)O)[C@@H](C)O)C(C)C)C(=O)N[C@@H](CC(C)C)C(=O)NC(C)(C)C(=O)N[C@H](C(=O)N[C@@H](CCC(=O)O)C(=O)O)[C@@H](C)O` [Peptide 340], for which the half-maximal effective concentration (EC50) in assay [1] was 94.7 pM. Besides, in assay [2], the EC50 was 312 pM and the “% Relative Potency Ratio” value was 0.6.

Turning to `CC(C)C[C@H](NC(=O)[C@H](Cc1c[nH]c2ccccc12)NC(=O)[C@H](CCC(N)=O)NC(=O)[C@@H](NC(=O)[C@H](Cc1ccccc1)NC(=O)[C@H](CC(=O)O)NC(=O)[C@H](CCCCNC(=O)CC[C@H](NC(=O)CCCCCCCCCCCCCCCCC(=O)O)C(=O)O)NC(=O)[C@H](C)NC(=O)[C@H](CCCNC(=N)N)NC(=O)[C@H](CCCNC(=N)N)NC(=O)[C@H](CO)NC(=O)[C@H](CC(=O)O)NC(=O)[C@H](CC(C)C)NC(=O)[C@](C)(Cc1ccccc1)NC(=O)[C@H](CCCCN)NC(=O)[C@H](CO)NC(=O)[C@H](Cc1ccc(O)cc1)NC(=O)[C@H](CC(=O)O)NC(=O)[C@H](CO)NC(=O)[C@@H](NC(=O)[C@H](Cc1ccccc1)NC(=O)[C@@H](NC(=O)CNC(=O)[C@H](CCC(N)=O)NC(=O)C(C)(C)NC(=O)[C@@H](N)Cc1c[nH]cn1)[C@@H](C)O)[C@@H](C)O)C(C)C)C(=O)N[C@@H](CC(C)C)C(=O)N[C@@H](CCC(=O)O)C(=O)NC(C)(C)C(=O)N[C@H](C(=O)O)[C@@H](C)O` [Peptide 341], the EC50 in assay [1] was 72.8 pM. For the same molecule, in assay [2], the EC50 was 363 pM and the “% Relative Potency Ratio” value is 0.4.

Regarding `CC[C@H](C)[C@H](NC(=O)[C@H](Cc1c[nH]c2ccccc12)NC(=O)[C@H](CCC(N)=O)NC(=O)[C@@H](NC(=O)[C@H](Cc1ccccc1)NC(=O)[C@H](CC(=O)O)NC(=O)[C@H](CCCCNC(=O)CC[C@H](NC(=O)CCCCCCCCCCCCCCCCC(=O)O)C(=O)O)NC(=O)[C@H](C)NC(=O)[C@H](C)NC(=O)[C@H](CCCNC(=N)N)NC(=O)[C@H](CO)NC(=O)[C@H](CC(=O)O)NC(=O)[C@H](CC(C)C)NC(=O)[C@](C)(Cc1ccccc1)NC(=O)[C@H](CCCCN)NC(=O)[C@H](CO)NC(=O)[C@@H](NC(=O)[C@H](CC(=O)O)NC(=O)[C@H](CO)NC(=O)[C@@H](NC(=O)[C@H](Cc1ccccc1)NC(=O)[C@@H](NC(=O)CNC(=O)[C@H](CCC(N)=O)NC(=O)C(C)(C)NC(=O)[C@@H](N)Cc1c[nH]cn1)[C@@H](C)O)[C@@H](C)O)C(C)C)C(C)C)C(=O)N[C@@H](C)C(=O)N[C@@H](CC(N)=O)C(=O)N[C@H](C(=O)O)[C@@H](C)O` [Peptide 342], the concentration giving a half-maximal response (EC50) in assay [1] came out at 4830 pM. Also, in assay [2], the concentration giving a half-maximal response (EC50) is 220 pM and the “% Relative Potency Ratio” value is 43.4.

Broadly, the EC50 is the concentration giving half of the maximal effect.
